From US6326395A, “Antifungal activity of dicationic molecules” (priority 1999, dated 2001)
Structures can show the parent of a compound that is named as a salt.

Tests used:
C. krusei 132.91 = test: antifungal susceptibility testing (MIC, MFC), extended spectrum; assay type: cell-based, Candida krusei; details: Pichia kudriavzevii
Description: Antifungal susceptibility testing for compounds set forth in Examples 1-20 is discussed hereinbelow. […]
In vitro susceptibility testing in the form of Minimum Inhibitory Concentration (MIC) experiments were performed using the broth macrodilution method according to the recommendations of the National Committee for Clinical Laboratory Standards (see 1995 manual). […] Briefly, this procedure specifies an inoculum grown at 35° C. and adjusted to a concentration of 0.5-2.5×10^3 CFU/ml with an incubation of the test performed at 35° C. and reading at 48 hours for all yeasts except for C. neoformans which is interpreted at 72 hr.
(§1) Minimum Fungicidal Concentration (MFC) experiments were adapted from a method by McGinnis (McGinnis, M. R., (1980) "Susceptibility testing and bioassay procedure", p. 431, Academic Press, Inc., New York). […] The lowest drug concentration that yielded three or fewer yeasts colonies was recorded as the MFC. […]
as §1, with “p.431,” for “p. 431,”, “3” for “three”

Candida albicans = test: in vitro antifungal susceptibility testing (MIC, MFC; broth macrodilution), Tables 1-7; assay type: cell-based
Text: (§2) The fungi that were employed included two reference strains, C. neoformans var. neoformans H99 and C. albicans A39 and the following clinical isolates: (1) two strains of fluconazole-resistant C. neoformans var. neoformans (135.95 and 114.96); (2) two strains of C. neoformans var. gattii (119.95 and 114.95); (3) two strains of fluconazole-resistant C. albicans (102.96 and 103.96); and (4) one strain each of Torulopsis glabrata (142.91), Candida parapsilosis (111.96), Candida krusei (132.91), C. tropicalis (110.96), Candida lusitaniae (111.92), Fusarium solani (152.89), Aspergillus fumigatus (168.95), and Aspergillus flavus (112.96). Antifungal susceptibility testing was performed using an RPMI-1640 medium (Sigma Chemical Co., St. Louis, Mo.) with glutamine, without sodium bicarbonate, and buffered at pH 7.0 with 0.165 M morpholine-propanesulfonic acid (MOPS).
(§3) In vitro susceptibility testing in the form of Minimum Inhibitory Concentration (MIC) experiments were performed using the broth macrodilution method according to the recommendations of the National Committee for Clinical Laboratory Standards (see 1995 manual). The only difference compared to the standardized procedure was the choice of drug dilutions ranging from 100 to 0.09 μg/ml. Briefly, this procedure specifies an inoculum grown at 35° C. and adjusted to a concentration of 0.5-2.5×10^3 CFU/ml with an incubation of the test performed at 35° C. and reading at 48 hours for all yeasts except for C. neoformans which is interpreted at 72 hr.
(§4) Minimum Fungicidal Concentration (MFC) experiments were adapted from a method by McGinnis (McGinnis, M. R., (1980) "Susceptibility testing and bioassay procedure", p. 431, Academic Press, Inc., New York). Briefly, 10 μl aliquots from tubes with growth inhibition were plated onto Sabouraud agar plates.
(§5) The fungi that were employed included two quality control reference strains, C. neoformans var. neoformansH99 and C. albicans A39 and the following clinical isolates: (1) four strains of C. neoformans var. neoformans (167.95; 135.95; 114.96; and 133.95) of which three were fluconazole-resistant>64 μg/ml (135.95; 114.96; and 133.95); (2) two strains of C. neoformans var. gattii (119.95 and 114.95); (3) two strains of fluconazole-resistant>64 μg/ml C. albicans (102.96 and 103.96); and (4) one strain each of C. glabrata (142.91), Candida parapsilosis (111.96), Candida krusei (132.91), C. tropicalis (110.96), Candida lusitaniae (111.92), Fusarium solani (152.89), Aspergillus fumigatus (168.95), Rhizopus arrhizus (117.89), Paecilomyces lilacinus (137.90), and Aspergillus flavus (112.96). Antifungal susceptibility testing was performed using an RPMI-1640 medium (Sigma Chemical Co., St. Louis, Mo.) with glutamine, without sodium bicarbonate, and buffered at pH 7.0 with 0.165 M morpholinepropanesulfonic acid (MOPS).
as §4, with “p.431,” for “p. 431,”

Cryptococcus neoformans = test: as above; assay type: cell-based
Text: as §2, §3, §4, §5
as §4, with “p.431,” for “p. 431,”

MIC (C. krusei 132.91; 48 hours, read-out: MIC80): 0.78 µg/mL | MIC (Candida albicans; 35° C., reading at 48 hours, read-out: MIC80 (Minimum inhibitory concentration 80%)): 0.78 µg/mL | MIC (Cryptococcus neoformans; 35° C., 72 hr, read-out: MIC80 (Minimum inhibitory concentration 80%)): 0.78 µg/mL
SMILES: CC(C)NC(=N)c1ccc2nc(-c3ccc4c(c3)Cc3cc(-c5nc6ccc(C(=N)NC(C)C)cc6[nH]5)ccc3-4)[nH]c2c1 [Compound 57, 2,7-Bis[2-(5-N-isopropylamidino)benzimidazoyl]fluorene hydrochloride]
MFC (C. krusei 132.91): 0.78 µg/mL | MFC (Candida albicans; three or fewer colonies, read-out: MFC (Minimum fungicidal concentration)): 1.56 µg/mL | MFC (Cryptococcus neoformans; Tables 2-7, three or fewer colonies, read-out: MFC (Minimum fungicidal concentration)): 0.78 µg/mL
